Data taken from paper PMC10033419, “Blocking NS3–NS4B interaction inhibits dengue virus in non-human primates” (Nature, 2023).
Several values for one entry are separate records, joined by “and”; a condition that tells them apart may be missing. Equal entries are not always repeated. Where two headings read alike, the source gives them in different places.

Assays:
DENV-2/16681/eGFP = experiment: microbe, parasite or virus in culture; type: cell-based; settings: Dengue virus
[1] = ATPLite cell viability assay; type: cell-based; settings: human, Huh-7 cells; Huh-7, n=1
Method: (§1) In parallel, the toxicity was measured using an ATPLite cell viability luminescence assay (PerkinElmer). The assays were performed in three different cell types (Vero, Huh-7 and THP-1/DC-SIGN) as described in ref. [3] to exclude cell-specific activity of the compound.

[2] = ATPLite cell viability assay; type: cell-based, human; settings: human, THP-1/DC-SIGN cells
Method: as §1

THP-1/DC-SIGN cells = experiment: ATPLite cell viability assay; type: cell-based, human
Method: as §1

[3] = test system: DENV-2 Asian America Martinique; type: cell-based; settings: T108I in NS4B
[4] = test system: DENV-2 Asian II Papua New Guinea; experiment: microbe, parasite or virus in culture; type: cell-based; settings: Dengue virus, DENV2, Vero C1008
Method: (§2) A total of 20 DENV strains, representing the available genotypes within the four DENV serotypes, were used in the in vitro genotype panel, from which 19 viruses were described previously in ref. [3] and one additional virus, DENV-1/45AZ5 (ref. [54]), was added.
(§3) A potential toxic effect on host cells was tested in parallel, while omitting virus infection, using the MTS/PMS method (Promega) for Vero cells, or by high-content imaging for C6/36 cells, as described previously. […] RT–qPCR data were analysed using the QuantStudio 12K Flex software (v.1.2.3) or SDS v.1.2 Applied Biosystems software. Inhibition values for antiviral molecules were plotted using KaleidaGraph plotting software (v.4.03, Synergy Software).

[5] = test system: DENV-2 Cosmopolitan France - Toulon; experiment: microbe, parasite or virus in culture; type: cell-based; settings: Dengue virus, DENV2, Vero C1008
Method: as §2, §3

DENV-4 G1 India = experiment: microbe, parasite or virus in culture; type: cell-based; settings: Dengue virus, DENV4, Vero C1008
Method: as §2, §3

DENV-2 Asian I Thailand = type: cell-based; settings: T108I in NS4B
WNV R94224 = experiment: microbe, parasite or virus in culture; type: cell-based; settings: West Nile virus
JEV CNS769-Laos 2009 = experiment: microbe, parasite or virus in culture; type: cell-based; settings: Japanese encephalitis virus, Vero C1008
CHIKV S27 = experiment: CPE inhibition assay ATPLite, Huh-7; type: cell-based; settings: Chikungunya virus
HBV replicon = experiment: microbe, parasite or virus in culture; type: cell-based; settings: Hepatitis B virus
hCMV AD169 = experiment: microbe, parasite or virus in culture; type: cell-based; settings: Human betaherpesvirus 5, AD169, MRC5; MRC-5
VACV Western reserve 56 = experiment: microbe, parasite or virus in culture; type: cell-based; settings: Orthopoxvirus vaccinia, Vero C1008; VeroE6
TOX-MT4LTRLUC = type: cell-based; settings: human, MT4LTRLUC cells
From the text: Supplement 41586_2023_5790_MOESM14_ESM.xlsx, sheet "Ext. Data Table 1" | column: Mean

NS3–NS4B interaction = type: cell-based; settings: for EC50: single replicates, read-out: EC50 (NS3/4B interaction), IP
in vivo [6] = settings: rhesus monkey, iv, 1 mg/kg
Method: After single intravenous administration, the monkey blood was collected at the BPRC just before dosing, and at 0.05, 0.15, 0.5, 4, 6, 8, 24, 48 and 264 h after dosing. After oral administration, the monkey blood was collected at the BPRC on the first and last day of dosing just before dosing and at 1, 2, 4, 6, 8 and 24 h after dosing that day. Moreover, blood samples were taken on days 3, 6 and 7 after infection just before dosing. For the study at WRAIR, the monkey blood was collected just before dosing and at 1, 4, 8 and 24 h after the first day of dosing and before dosing and at 2, 5, 8, 24 and 96 h after the last day of dosing. Furthermore, blood samples were taken on days 0, 2, 5 and 8 after infection just before dosing. […] A volume of 1 ml blood was collected into a blood collection tube coated with EDTA as anti-coagulant. Within 1 h after collection, the blood samples were centrifuged in a precooled centrifuge for 10 min at 1,500g (4 °C). Within 2 h after blood collection, the plasma samples were stored at −80 °C until shipment. Individual plasma concentration–time profiles were processed for a non-compartmental pharmacokinetics analysis using Phoenix WinNonlin v.6.3. (Certara).

in vivo [7] = experiment: in vivo; set-up: species or system rhesus macaques; settings: both sexes, Indian-strain, rhesus monkey, po, 6 mg/kg
From the text: WRAIR is fully accredited by AAALAC International.

[8] = rhesus monkey, in vivo
[9] = both, Indian-origin, rhesus monkey, in vivo, po
[10] = two of three values below threshold

COc1cc(N[C@H](C(=O)c2c[nH]c3ccc(OC(F)(F)F)cc23)c2ccc(Cl)cc2OC)cc(S(C)(=O)=O)c1 [JNJ-1802]
EC90 (DENV-2/16681/eGFP; DENV2, Huh-7, Huh-7, read-out: EC90): 0.53 ± 0.31 nM
EC90 (DENV-2/16681/eGFP; DENV2, Huh-7, read-out: EC90 Mean): 0.533 nM
CC50 [1]: 12700 nM
CC50 [2]: > 500 nM
CC50 (THP-1/DC-SIGN cells; individual data, read-out: CC50, individual data): > 500 nM
CC50 (THP-1/DC-SIGN cells; mean, read-out: CC50 Mean): > 500 nM
EC50 [3]: 0.8 ± 0.7 nM
EC90 [3]: 1.88 ± 1.37 nM
EC90 [4]: 0.19 ± 0.1 nM
EC50 ([4]; two of two values below threshold): < 0.04 nM
EC90 ([5]; one of three values below threshold): 0.28 nM
EC50 [5, 10]: < 0.0443 nM
EC90 (DENV-4 G1 India): 0.762 ± 0.095 nM
EC50 (DENV-4 G1 India; [10]): < 0.09 nM
EC50 (DENV-2 Asian I Thailand): 1.4 ± 0.34 nM
EC90 (DENV-2 Asian I Thailand): 2.78 ± 0.037 nM
EC50 (WNV R94224; Vero C1008): 250 nM
EC50 (WNV R94224; Vero C1008, read-out: mean EC50, range): 250 to 1100 nM
EC50 (JEV CNS769-Laos 2009): 590 nM
EC50 (CHIKV S27; Huh-7): > 25000 nM
EC90 (CHIKV S27; Huh-7, read-out: EC90, Mean): > 25000 nM
EC50 (HBV replicon; HepG2.117): 10000 nM
EC50 (HBV replicon; HepG2.117, read-out: EC50, Mean): 9960 nM
EC90 (HBV replicon; HepG2.117, read-out: EC90, Mean): 12500 nM
EC50 (hCMV AD169): 9000 nM
EC50 (VACV Western reserve 56): 8900 nM
CC50 (TOX-MT4LTRLUC): 8140 nM
CC90 (TOX-MT4LTRLUC): 21200 nM
AUC(0-inf) (in vivo [6]; female, in vivo): 11800 ng·h/mL
AUC(0-t) (in vivo [6]; female, plasma): 6730 ng·h/mL
clearance (in vivo [6]; female, plasma): 1.67 ± 0.74 mL/min/kg
half-life (in vivo [6]; female, plasma): 50 ± 12 h
Vdssp (in vivo [6]; in vivo): 3.93 ± 1.18 L/kg
Tmax (in vivo [7]): 8 h
haematological analysis [8]: did not show any indication for a treatment-related effect
Tmax ([9]; 0.01 mg/kg): 24 h
Cmax ([9]; 0.18 mg/kg): 25.3 ± 6.7 ng/mL
Tmax ([9]; 3 mg/kg): up to 24 h
